Results on 16 compounds are retold here after patent publication US10954214B2 (Janssen Pharmaceutica NV, priority 2016, dated 2021).

Molecules are shown by their SMILES.

One assay has as its system Jurkat cells. Kind of assay: PMA Induced IL2 Production In Jurkat Cells. It counts as cell-based. To be noted: Homo sapiens, PMA/Ionomycin, 20 h, read-out: IL-2 prod h Jurkat PMA IC50. As for the experimental part: Jurkat cells were maintained in complete RPMI 1640 media containing 10% fetal bovine serum, 10 mM HEPES, 100 units/mL of penicillin and 100 μg/mL of streptomycin. Prior to the assay, compounds were made 2- to 4-fold serial dilutions in DMSO. A volume of 10 μL of DMSO-diluted compound in each well were further diluted into 240 μL RPMI1640 complete media. Jurkat cells were harvested by centrifuge at 1200 RPM for 5 min, washed one time with RPMI 1640 media, and suspended in fresh complete RPMI 1640 media at concentration of 1.25×10^6 cell/mL. A volume of 160 uL of Jurkat cells (2×10^5 cells) were seeded in each well of 96 well plate-bottom plates. A volume of 20 uL of diluted compound in RMPI 1640 complete media were added to each well and incubated with Jurkat cells for 30 min at 37° C. in a 5% CO2 incubator. A volume 20 μL of diluted PMA/Ionomycin (81 nM/1.3 uM respectively, ebioscience, catalog number 00-4970-93) in RMPI 1640 complete media were added to each well. After incubation at 37° C. in 5% CO2 incubator for 20 h, supernatants were harvested. IL-2 concentration was assessed by ELISA (IL2 Duoset, R&D Systems, catalog number DY202). Colorimetric intensity at 450 nm was read by Spectramax plate reader and analyzed with Softmax Pro software. Cell viability was assessed by Cell Titer Glo kit (Promega, catalog number G7571) using Victor Luminescence reader (Victor 3V 4202938 by Perkin Elmer).

In the next assay the test system is TMD8 cells. As to the kind of experiment: 4-day proliferation assay, TMD8. To be noted: Homo sapiens, 96 h, 4 days incubation, CellTiterGLO, read-out: Anti-proliferation: TMD-8 IC50. In kind it is cell-based. The method, boiled down: (§1)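 Each line was plated at 10,000 cells per well for linear growth, with no beta-mercaptoethanol during the assay. OCI-Ly3 cells were below passage 10.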

Assay [1] deals with IL6 secretion by TMD8 ABC-DLBCL cells. As to the kind of experiment: Human IL6 Mesoscale assay (TMD-8). To be noted: Homo sapiens, TMD8; TMD-8 cells, 24 h. In kind it is cell-based. A digest of the protocol: (§2)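 Read-out: MSD electrochemiluminescence of IL6/IL10 in supernatants. Cells (100,000/well, no beta-mercaptoethanol) were exposed to compounds at 15 μM down to 58.6 nM, 1:2 dilutions, for 24 h at 37° C, 5% CO2. Normalised between DMSO (high) and RN486 (low) controls.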

Assay [2] deals with full-length MALT1 protein (Strep-MALT1(1-824)-His) (Homo sapiens (Human), UniProt Q9UDY8). Kind of assay: MALT1 Biochemical Protease Assay (Ac-LRSR-AMC substrate). To be noted: 10 nM FL MALT1, 200 μM Ac-LRSR-AMC, 4 h at RT; read-out: MALT1_Biochemical activity (Ac-LRSR-amc) IC50. A digest of the protocol: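 Fluorescence from AMC release off the quenched LRSR substrate was read after a 4 h reaction at RT. Values were normalised to no-enzyme and uninhibited controls and fitted for IC50 and Hill coefficient.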
Sequence of full-length MALT1 protein (Strep-MALT1(1-824)-His) (Q9UDY8 whole entry): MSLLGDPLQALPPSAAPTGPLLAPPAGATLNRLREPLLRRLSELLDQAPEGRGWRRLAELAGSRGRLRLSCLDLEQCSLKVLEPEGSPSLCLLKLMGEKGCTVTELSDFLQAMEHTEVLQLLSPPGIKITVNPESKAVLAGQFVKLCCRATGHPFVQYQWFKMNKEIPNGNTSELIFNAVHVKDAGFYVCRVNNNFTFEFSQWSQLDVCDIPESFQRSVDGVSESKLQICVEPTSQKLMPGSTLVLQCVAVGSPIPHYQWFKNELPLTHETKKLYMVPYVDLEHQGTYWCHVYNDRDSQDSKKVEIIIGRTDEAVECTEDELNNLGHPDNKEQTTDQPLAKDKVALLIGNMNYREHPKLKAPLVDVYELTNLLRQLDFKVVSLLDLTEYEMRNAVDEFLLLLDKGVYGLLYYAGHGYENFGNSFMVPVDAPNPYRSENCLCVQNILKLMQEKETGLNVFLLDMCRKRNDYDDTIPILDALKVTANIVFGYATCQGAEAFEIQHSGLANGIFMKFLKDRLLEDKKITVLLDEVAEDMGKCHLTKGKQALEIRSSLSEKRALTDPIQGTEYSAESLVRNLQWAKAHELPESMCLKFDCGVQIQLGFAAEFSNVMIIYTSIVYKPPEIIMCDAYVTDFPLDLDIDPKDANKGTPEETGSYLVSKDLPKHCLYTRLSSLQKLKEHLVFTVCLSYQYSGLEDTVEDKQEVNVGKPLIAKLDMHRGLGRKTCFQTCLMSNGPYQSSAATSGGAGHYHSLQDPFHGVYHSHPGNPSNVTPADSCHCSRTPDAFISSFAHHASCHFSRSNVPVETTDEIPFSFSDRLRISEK

For a further assay, the system named is OCI-Ly3 cells. Kind of assay: 4-day proliferation assay, OCI-Ly3. It counts as cell-based, human. To be noted: Homo sapiens, 96 h, 4 days incubation, CellTiterGLO, read-out: Anti-proliferation: OCI-LY-3 IC50. The method, boiled down:
as §1

In assay [3] the test system is IL10 secretion by TMD8 ABC-DLBCL cells. As to the kind of experiment: Human IL10 Mesoscale assay (TMD-8). In kind it is cell-based. The conditions noted are these: Homo sapiens, TMD8; TMD-8 cells, 24 h. A digest of the protocol:
as §2

Consider `O=C(Nc1cnc(-n2nccn2)c(Cl)c1)c1cnn(-c2cccc3ccccc23)c1C(F)(F)F` [Cpd 2, N-(5-Chloro-6-(2H-1,2,3-triazol-2-yl)pyridin-3-yl)-1-(naphthalen-1-yl)-5-(trifluoromethyl)-1H-pyrazole-4-carboxamide], for which the IC50 with Jurkat cells is 0.059 µM; in the assay on TMD8 cells, 13.8 µM; in assay [1] it was 0.052 µM; in assay [2] it was 0.012 µM; with OCI-Ly3 cells it was 0.42 µM; in assay [3], 0.028 µM.

With `O=C(Nc1ccnc(C(F)(F)F)c1)c1cnn(-c2cccc3ccccc23)c1C(F)(F)F` [Cpd 3, 1-(Naphthalen-1-yl)-5-(trifluoromethyl)-N-(2-(trifluoromethyl)pyridin-4-yl)-1H-pyrazole-4-carboxamide], the IC50 in the assay on Jurkat cells is 0.16 µM; in the assay with TMD8 cells, 9.55 µM; in assay [1], 0.219 µM; in assay [2], 0.191 µM; in the assay on OCI-Ly3 cells, approximately 2.88 µM; in assay [3], 0.138 µM.

In the case of `O=C(Nc1cncc(C(F)(F)F)c1)c1cnn(-c2cccc3ccccc23)c1C(F)(F)F` [Cpd 4, 1-(Naphthalen-1-yl)-5-(trifluoromethyl)-N-(5-(trifluoromethyl)pyridin-3-yl)-1H-pyrazole-4-carboxamide], the IC50 is 0.36 µM in the assay on Jurkat cells; approximately 15.8 µM in the assay on TMD8 cells; 0.339 µM in assay [1]; 0.2 µM in assay [2]; approximately 0.5 µM with OCI-Ly3 cells; 0.214 µM in assay [3].

In the case of `COc1ncc(NC(=O)c2cnn(-c3cccc4ncccc34)c2C(F)(F)F)cc1Cl` [Cpd 7, N-(5-Chloro-6-methoxypyridin-3-yl)-1-(quinolin-5-yl)-5-(trifluoromethyl)-1H-pyrazole-4-carboxamide], the IC50 with Jurkat cells is 0.13 µM; in the assay on TMD8 cells, approximately 14.1 µM; in assay [1] it was 0.166 µM; in assay [2], 0.041 µM; in the assay on OCI-Ly3 cells it was 0.43 µM.

As for `O=C(Nc1cnc(-n2nccn2)c(Cl)c1)c1cnn(-c2cccc3ncccc23)c1C(F)(F)F` [Cpd 8, N-(5-Chloro-6-(2H-1,2,3-triazol-2-yl)pyridin-3-yl)-1-(quinolin-5-yl)-5-(trifluoromethyl)-1H-pyrazole-4-carboxamide], the IC50 is 0.0052 µM with Jurkat cells; approximately 7.59 µM in the assay on TMD8 cells; 0.032 µM in assay [1]; 0.013 µM in assay [2]; 0.11 µM with OCI-Ly3 cells.

With `Cc1cc2ccccc2c(-n2ncc(C(=O)Nc3cnc(-n4nccn4)c(Cl)c3)c2C(F)(F)F)n1` [Cpd 9, N-(5-Chloro-6-(2H-1,2,3-triazol-2-yl)pyridin-3-yl)-1-(3-methylisoquinolin-1-yl)-5-(trifluoromethyl)-1H-pyrazole-4-carboxamide], the IC50 in the assay with Jurkat cells was 0.039 µM; in the assay with TMD8 cells, 10.7 µM; in assay [1] it was 0.195 µM; in assay [2], 0.065 µM; with OCI-Ly3 cells, approximately 2.4 µM.

In the case of `O=C(Nc1ccc(-n2nccn2)c(Cl)c1)c1cnn(-c2cccc3ccncc23)c1C(F)(F)F` [Cpd 11, N-(3-chloro-4-(2H-1,2,3-triazol-2-yl)phenyl)-1-(isoquinolin-8-yl)-5-(trifluoromethyl)-1H-pyrazole-4-carboxamide], the IC50 in the assay with Jurkat cells was 0.68 µM; in the assay with TMD8 cells, 12.6 µM; in assay [1] it was approximately 13.5 µM; in assay [2] it was 0.977 µM; in the assay with OCI-Ly3 cells, approximately 9.55 µM.

As to `CCc1c(C(=O)Nc2cnc(-n3nccn3)c(Cl)c2)cnn1-c1cccc2ncccc12` [Cpd 17, N-(5-Chloro-6-(2H-1,2,3-triazol-2-yl)pyridin-3-yl)-5-ethyl-1-(quinolin-5-yl)-1H-pyrazole-4-carboxamide], the IC50 in the assay with Jurkat cells was 0.17 µM; in the assay with TMD8 cells, 9.33 µM; in assay [1], 0.794 µM; in assay [2] it was 0.141 µM; with OCI-Ly3 cells, approximately 4.37 µM.

Consider `N#Cc1cc(NC(=O)c2cnn(-c3cccc4ccncc34)c2C(F)(F)F)cnc1-n1nccn1` [Cpd 19, N-(5-cyano-6-(2H-1,2,3-triazol-2-yl)pyridin-3-yl)-1-(isoquinolin-8-yl)-5-(trifluoromethyl)-1H-pyrazole-4-carboxamide], for which the IC50 with Jurkat cells was 0.41 µM; in the assay on TMD8 cells, more than 20 µM; in assay [1] it was 1.95 µM; in assay [2] it was 0.229 µM; in the assay on OCI-Ly3 cells, 1.1 µM.

As for `O=C(Nc1cnc(-c2ncco2)c(Cl)c1)c1cnn(-c2cccc3ccncc23)c1C(F)(F)F` [Cpd 22, N-(5-chloro-6-(oxazol-2-yl)pyridin-3-yl)-1-(isoquinolin-8-yl)-5-(trifluoromethyl)-1H-pyrazole-4-carboxamide], the IC50 is 1.86 µM with Jurkat cells; 17 µM in the assay with TMD8 cells; more than 15 µM in assay [1]; 0.661 µM in assay [2]; approximately 0.31 µM in the assay on OCI-Ly3 cells.

For `COc1ncc(NC(=O)c2cnn(-c3cncc4ccccc34)c2C(F)(F)F)cc1Cl` [Cpd 23, N-(5-chloro-6-methoxypyridin-3-yl)-1-(isoquinolin-4-yl)-5-(trifluoromethyl)-1H-pyrazole-4-carboxamide], the IC50 amounted to 0.81 µM in the assay on Jurkat cells; 8.32 µM in the assay with TMD8 cells; 0.107 µM in assay [1]; 0.089 µM in assay [2]; 3.39 µM in the assay with OCI-Ly3 cells.

Consider `COc1ncc(NC(=O)c2cnn(-c3cncc4ccccc34)c2C(F)(F)F)cc1C#N` [Cpd 24, N-(5-cyano-6-methoxypyridin-3-yl)-1-(isoquinolin-4-yl)-5-(trifluoromethyl)-1H-pyrazole-4-carboxamide], for which the IC50 in the assay on Jurkat cells is 0.74 µM; with TMD8 cells, approximately 10 µM; in assay [1], 0.093 µM; in assay [2], 0.074 µM; in the assay with OCI-Ly3 cells, approximately 1.95 µM; in assay [3] it was 0.129 µM.

`O=C(Nc1cnc(-n2nccn2)c(Cl)c1)c1cnn(-c2cccc3ncc(F)cc23)c1C(F)(F)F` [Cpd 25, N-(5-Chloro-6-(2H-1,2,3-triazol-2-yl)pyridin-3-yl)-1-(3-fluoroquinolin-5-yl)-5-(trifluoromethyl)-1H-pyrazole-4-carboxamide]: the IC50 in the assay with Jurkat cells is 0.21 µM; in the assay on TMD8 cells, approximately 14.1 µM; in assay [1], 0.174 µM; in assay [2], 0.072 µM; with OCI-Ly3 cells, 3.31 µM.

Consider `CC(C)c1c(C(=O)Nc2cnc(-n3nccn3)c(Cl)c2)cnn1-c1cccc2ncccc12` [Cpd 26, N-(5-chloro-6-(2H-1,2,3-triazol-2-yl)pyridin-3-yl)-5-isopropyl-1-(quinolin-5-yl)-1H-pyrazole-4-carboxamide], for which the IC50 amounted to 0.79 µM in the assay with Jurkat cells; 8.71 µM in the assay with TMD8 cells; 0.575 µM in assay [1]; 0.631 µM in assay [2]; 4.79 µM with OCI-Ly3 cells.

Consider `Cc1ccc(-n2ncc(C(=O)Nc3cnc(-n4nccn4)c(Cl)c3)c2C(F)(F)F)c2cccnc12` [Cpd 28, N-(5-Chloro-6-(2H-1,2,3-triazol-2-yl)pyridin-3-yl)-1-(8-methylquinolin-5-yl)-5-(trifluoromethyl)-1H-pyrazole-4-carboxamide], for which the IC50 in the assay with Jurkat cells came out at 0.2 µM; with TMD8 cells it was 6.61 µM; in assay [1], 0.141 µM; in assay [2], 0.068 µM; in the assay on OCI-Ly3 cells, 1.51 µM.

Turning to `O=C(Nc1cnc(-n2nccn2)c(Cl)c1)c1cnn(-c2cncc3ccccc23)c1C(F)(F)F` [Cpd 32, N-(5-chloro-6-(2H-1,2,3-triazol-2-yl)pyridin-3-yl)-1-(isoquinolin-4-yl)-5-(trifluoromethyl)-1H-pyrazole-4-carboxamide], the IC50 in the assay on Jurkat cells was 0.002 µM; with TMD8 cells, 4.9 µM; in assay [1], 0.017 µM; in assay [2], 0.019 µM; with OCI-Ly3 cells, 0.11 µM; in assay [3] it was 0.014 µM.
